Source: patent publication US11066403B2, “Solid form of azetidine derivative and preparation method therefor and use thereof” (SICHUAN KELUN-BIOTECH BIOPHARMACEUTICAL CO., LTD., priority 2017, dated 2021)
Each block holds one compound with its values, some of them ahead of it.

Experiments:
[1] = Viscous fluidity test (bulk density, angle of repose); type: physicochemical; conditions: for angle of repose: funnel method, tan α=H/R; for most apparent density (bulk density): without applying any external force
Method: (§1) A measuring container was filled with crystalline form B (1.97 g) of the compound of Formula (I), and the volume was determined to be 7.62 ml without applying any external force. The most apparent density (i.e., bulk density) was calculated to be 0.26 g/ml. The powder was slowly added into a funnel from above so that the material leaking from the bottom of the funnel formed a conical stack on the horizontal surface, and the diameter of the bottom of the cone (2R) and the height of the cone (H) were measured to be 3.59 cm and 1.79 cm, respectively. And the angle of repose was calculated to be 45 degrees according to the formula for calculating the angle of repose (tan α=H/R).
as §1, with “The” for “A measuring container was filled with crystalline form B (1.97 g) of the compound of Formula (I), and the volume was determined to be 7.62 ml without applying any external force. The”, “0.43” for “0.26”, “cone” for “cone (H)”, “2.91” for “3.59”, “1.46” for “1.79”

[2] = Physicochemical stability (high temperature, high humidity, light; XRPD and HPLC); conditions: XRPD
JAK3 = target: T1, JAK3 (Homo sapiens, UniProt P52333); assay: JAK3 enzymatic activity inhibition assay (HTRF KinEASE-TK); type: biochemical
T1 sequence (P52333 1-1124): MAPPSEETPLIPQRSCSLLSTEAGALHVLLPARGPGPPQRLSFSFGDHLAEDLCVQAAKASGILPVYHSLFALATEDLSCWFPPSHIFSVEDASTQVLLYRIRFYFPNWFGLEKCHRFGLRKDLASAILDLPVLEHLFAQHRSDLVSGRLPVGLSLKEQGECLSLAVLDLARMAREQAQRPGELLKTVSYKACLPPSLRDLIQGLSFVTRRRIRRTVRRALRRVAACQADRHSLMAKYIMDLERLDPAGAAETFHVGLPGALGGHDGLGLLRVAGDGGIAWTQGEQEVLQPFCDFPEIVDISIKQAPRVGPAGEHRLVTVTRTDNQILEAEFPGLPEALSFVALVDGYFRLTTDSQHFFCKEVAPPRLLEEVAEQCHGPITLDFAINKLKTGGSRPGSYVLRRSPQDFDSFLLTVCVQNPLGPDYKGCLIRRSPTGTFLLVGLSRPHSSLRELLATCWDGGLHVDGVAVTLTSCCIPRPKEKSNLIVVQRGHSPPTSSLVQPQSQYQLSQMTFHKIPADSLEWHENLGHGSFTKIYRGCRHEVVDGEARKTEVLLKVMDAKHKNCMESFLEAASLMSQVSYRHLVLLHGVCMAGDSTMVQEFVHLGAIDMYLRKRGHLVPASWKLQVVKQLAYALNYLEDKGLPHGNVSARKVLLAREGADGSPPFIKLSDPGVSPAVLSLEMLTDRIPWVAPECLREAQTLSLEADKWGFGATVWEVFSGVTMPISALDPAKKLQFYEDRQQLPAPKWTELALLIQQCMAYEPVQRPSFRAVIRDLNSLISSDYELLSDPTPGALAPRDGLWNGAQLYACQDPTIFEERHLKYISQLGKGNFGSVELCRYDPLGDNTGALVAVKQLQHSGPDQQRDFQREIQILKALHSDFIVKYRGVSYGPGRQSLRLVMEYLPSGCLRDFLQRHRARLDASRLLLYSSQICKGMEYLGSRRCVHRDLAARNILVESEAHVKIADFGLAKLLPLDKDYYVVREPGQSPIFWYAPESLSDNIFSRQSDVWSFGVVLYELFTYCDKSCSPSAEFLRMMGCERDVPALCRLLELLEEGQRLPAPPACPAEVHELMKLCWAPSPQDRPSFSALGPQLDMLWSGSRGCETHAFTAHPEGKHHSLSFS
Method: (§3) The crystalline form of the compound of Formula (I), an enzyme, a substrate and ATP were diluted to desired concentrations with the buffer in the HTRF® KinEASE™-TK kit (Cisbio). The former three agents were added into a multiple well plate, and incubated at room temperature after being mixed homogeneously. ATP was added to initiate the kinase reaction, and incubation at room temperature was performed. The test reagent in the kit was used to terminate the reaction, and incubation was continued at room temperature. After the incubation was completed, fluorescence signals at 620 nm and 665 nm were measured using a BMG PHERAstar FS microplate reader, and the half inhibitory concentration (IC50) values were calculated.

[3] = tested on: Collagen-Induced Arthritis (CIA) model; assay: Efficacy in collagen-induced arthritis (CIA) model in rats; type: in vivo, rat; design: Mean pathological score, Joint inflammation (X ± SD) / Mean pathological score, Joint cartilage erosion (X ± SD) / Mean pathological score, Synovial hyperplasia/pannus (X ± SD): scale not given here; conditions: for Mean pathological score, Joint cartilage erosion (X ± SD) / Mean pathological score, Joint inflammation (X ± SD) / Mean pathological score, Synovial hyperplasia/pannus (X ± SD): hind paw joints
Method: After female Lewis rats were immunized twice with bovine type II collagen to form a CIA model, the rats were randomly divided into 4 groups (the vehicle group, and the groups of the crystalline form of the compound of Formula (I) of the present invention (1 mg/kg, 3 mg/kg, 10 mg/kg), respectively), and unmodeled rats were taken as the normal group. The corresponding drugs were administered by gavage once a day for 14 days (D15-D28). The hind paw was scored for arthritis index during the administration (the results are shown in Table 5); and after the end of the experiment, the ankle joint was taken for pathologic analysis (the average pathological scores of the hind paw joints of the rats are shown in Table 6).

[4] = Cytotoxicity (MTS) in N2a; type: cell-based; conditions: mouse, N2a neuroblastoma cells, neuroblastoma cell, 40 h incubation
Method: (§2) The cells were plated at a concentration of 2×10^4 cells/well and incubated for 4 h at 37° C. in a 5% CO2 incubator. The crystalline form of the compound of Formula (I) of the present invention was added, and incubation was continued for 40 h. The incubation solution was removed, and a complete medium was added (100 μl/well) to each test well and incubated in the incubator for 0.5 to 1 h. Then, MTS solution was added (10 μl/well) thereto, and incubation was continued for 4 h in the incubator. The absorbance at 450 nm was measured, and the IC50 value was calculated.

[5] = tested on: STAT3 phosphorylation in Hep3B cells; assay: Effect on JAK/STAT signaling pathway in Hep3B cells (IL-6 induced p-STAT3, AlphaLISA); type: cell-based; conditions: Homo sapiens, 0.5 h, IL-6 stimulation 30 min
Method: After incubating the crystalline form of the compound of Formula (I) of the present invention with Hep3B cells in a 37° C., 5% CO2 incubator for 15 min, […] IL-6 was added. Incubation was continued for 30 min, and the cells were lysed. The lysate was added to AlphaLISA SureFire Ultra p-STAT3 (Tyr705) assay kit (PerkinElmer), incubated at room temperature in dark, and the signals emitted by the receptor microbeads after energy absorption were measured, and the half inhibitory concentration (IC50) of inhibiting STAT3 phosphorylation was calculated.

hERG potassium channel = target: T2, hERG potassium channel (Homo sapiens, UniProt Q12809); assay: hERG test (Predictor hERG Fluorescence Polarization Assay Kit); type: binding
T2 construct: purchased Thermo Fisher
Method: The effects of the crystalline forms of the compound of Formula (I) on hERG potassium channel were determined using a biochemical hERG assay kit based on fluorescence polarization technology (Predictor™ hERG Fluorescence Polarization Assay Kit, Thermo Fisher) to assess the potential of the crystalline form of the compound of Formula (I) in inducing cardiac QT interval prolongation.

[6] = Cytotoxicity (MTS) in HEK293; type: cell-based; conditions: HEK293 cells, human embryonic kidney cell, 40 h incubation
Method: as §2

[7] = Cytotoxicity (MTS) in HK-2; type: cell-based; conditions: HK-2 cells, human proximal tubular cell, 40 h incubation
Method: as §2

TYK2 = TYK2 (Homo sapiens, UniProt P29597); assay: TYK2 enzymatic activity inhibition assay (HTRF KinEASE-TK); type: biochemical
Method: as §3

[8] = high humidity (92.5%) for 5 days
[9] = high temperature (60° C.) for 5 days
[10] = 1 mg/kg gavage once a day for 14 days
[11] = 3 mg/kg gavage once a day for 14 days
[12] = 10 mg/kg gavage once a day for 14 days

T2 sequence (Q12809 whole entry): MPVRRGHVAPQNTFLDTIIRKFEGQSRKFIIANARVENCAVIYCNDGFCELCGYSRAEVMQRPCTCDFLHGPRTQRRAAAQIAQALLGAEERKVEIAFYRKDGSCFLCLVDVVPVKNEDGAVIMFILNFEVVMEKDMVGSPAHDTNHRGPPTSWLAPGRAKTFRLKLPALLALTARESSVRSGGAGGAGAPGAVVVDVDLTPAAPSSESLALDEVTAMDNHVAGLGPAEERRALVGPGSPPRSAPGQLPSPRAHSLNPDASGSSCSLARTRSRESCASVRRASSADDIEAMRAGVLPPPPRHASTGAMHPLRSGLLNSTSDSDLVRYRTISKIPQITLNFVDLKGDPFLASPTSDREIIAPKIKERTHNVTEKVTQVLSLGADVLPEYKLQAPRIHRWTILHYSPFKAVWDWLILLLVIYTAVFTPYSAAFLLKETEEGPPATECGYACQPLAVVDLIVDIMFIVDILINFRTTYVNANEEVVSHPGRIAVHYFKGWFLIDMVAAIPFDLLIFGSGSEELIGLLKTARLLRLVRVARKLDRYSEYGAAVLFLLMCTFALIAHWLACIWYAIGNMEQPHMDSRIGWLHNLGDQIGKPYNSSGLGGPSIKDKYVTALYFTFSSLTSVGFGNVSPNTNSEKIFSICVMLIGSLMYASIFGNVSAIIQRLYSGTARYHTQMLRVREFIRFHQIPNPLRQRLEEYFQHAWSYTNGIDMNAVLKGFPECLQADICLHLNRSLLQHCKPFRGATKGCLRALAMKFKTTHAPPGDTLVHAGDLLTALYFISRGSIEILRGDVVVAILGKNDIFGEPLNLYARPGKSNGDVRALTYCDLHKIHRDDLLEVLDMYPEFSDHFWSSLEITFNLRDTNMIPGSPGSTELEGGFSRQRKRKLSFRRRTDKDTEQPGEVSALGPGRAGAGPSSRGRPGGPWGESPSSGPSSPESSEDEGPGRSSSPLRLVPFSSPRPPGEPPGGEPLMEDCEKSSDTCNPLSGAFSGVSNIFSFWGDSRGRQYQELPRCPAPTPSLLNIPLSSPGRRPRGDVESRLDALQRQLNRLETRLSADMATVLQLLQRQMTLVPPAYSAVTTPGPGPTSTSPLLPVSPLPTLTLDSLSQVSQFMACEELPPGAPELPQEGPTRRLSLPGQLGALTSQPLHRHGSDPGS
Chain of TYK2 (P29597 whole entry, species assumed): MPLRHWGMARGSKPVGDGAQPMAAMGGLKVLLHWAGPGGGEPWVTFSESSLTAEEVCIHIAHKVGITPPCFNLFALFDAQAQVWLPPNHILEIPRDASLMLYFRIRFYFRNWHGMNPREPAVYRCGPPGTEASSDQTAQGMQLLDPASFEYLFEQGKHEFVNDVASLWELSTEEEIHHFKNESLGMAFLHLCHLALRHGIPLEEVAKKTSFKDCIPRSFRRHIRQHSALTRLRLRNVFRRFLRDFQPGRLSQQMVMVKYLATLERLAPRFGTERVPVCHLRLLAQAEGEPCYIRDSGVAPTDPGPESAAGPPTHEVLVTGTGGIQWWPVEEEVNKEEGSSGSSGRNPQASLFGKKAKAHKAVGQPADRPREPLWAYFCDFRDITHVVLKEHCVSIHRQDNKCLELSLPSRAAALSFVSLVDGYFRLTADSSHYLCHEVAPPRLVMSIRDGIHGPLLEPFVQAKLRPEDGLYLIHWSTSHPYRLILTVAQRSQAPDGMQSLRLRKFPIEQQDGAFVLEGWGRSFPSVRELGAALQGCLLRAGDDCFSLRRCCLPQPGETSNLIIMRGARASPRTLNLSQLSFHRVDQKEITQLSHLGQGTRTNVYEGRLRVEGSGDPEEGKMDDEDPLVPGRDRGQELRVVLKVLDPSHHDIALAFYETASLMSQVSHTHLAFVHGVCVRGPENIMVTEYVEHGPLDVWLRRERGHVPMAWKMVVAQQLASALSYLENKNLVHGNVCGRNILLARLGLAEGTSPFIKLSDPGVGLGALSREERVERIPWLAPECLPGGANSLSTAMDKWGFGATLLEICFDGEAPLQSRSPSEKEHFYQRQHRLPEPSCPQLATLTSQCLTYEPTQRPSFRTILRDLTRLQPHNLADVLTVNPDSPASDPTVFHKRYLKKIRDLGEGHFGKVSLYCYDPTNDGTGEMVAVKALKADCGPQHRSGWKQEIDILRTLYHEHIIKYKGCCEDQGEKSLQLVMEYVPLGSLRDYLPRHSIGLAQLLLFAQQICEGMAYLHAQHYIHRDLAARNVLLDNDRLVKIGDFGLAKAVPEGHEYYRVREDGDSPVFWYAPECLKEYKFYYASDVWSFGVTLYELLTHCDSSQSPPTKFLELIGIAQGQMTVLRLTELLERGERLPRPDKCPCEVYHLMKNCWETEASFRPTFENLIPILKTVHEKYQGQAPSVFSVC

particle fluidity [1]: good particle fluidity | angle of repose [1]: 45 degrees | most apparent density (bulk density) [1]: 0.26 g/mL | Changes in crystalline form [2, 8]: No | Changes in crystalline form [2, 9]: No | Changes in crystalline form ([2]; light condition for 5 days): No
SMILES: CCS(=O)(=O)N1CC(CC#N)(n2cc(-c3ccnc4[nH]ccc34)cn2)C1 [Crystalline form B, 2-(3-(4-(1H-pyrrolo[2,3-b]pyridin-4-yl)-1H-pyrazol-1-yl)-1-(ethylsulfonyl)azetidin-3-yl)acetonitrile]

particle fluidity [1]: good particle fluidity | angle of repose [1]: 45 degrees | most apparent density (bulk density) [1]: 0.43 g/mL | IC50 (JAK3): 0.0161 ± 0.00155 µM | IC50 [5]: 0.123 ± 0.0183 µM | Changes in crystalline form [2, 8]: No | Changes in crystalline form [2, 9]: No | Changes in crystalline form ([2]; light condition for 5 days): No | IC50 (TYK2): 0.0228 ± 0.00403 µM
SMILES: CCS(=O)(=O)N1CC(CC#N)(n2cc(-c3ccnc4[nH]ccc34)cn2)C1 [Crystalline form A, 2-(3-(4-(1H-pyrrolo[2,3-b]pyridin-4-yl)-1H-pyrazol-1-yl)-1-(ethylsulfonyl)azetidin-3-yl)acetonitrile]
Effect on mean pathological score of synovial hyperplasia/pannus (in words) ([3]; 1 mg/kg): to some extent | Effect on mean pathological scores of joint inflammation and joint cartilage erosion (in words) ([3]; 1 mg/kg): significantly reduce | Mean pathological score, Joint cartilage erosion (X ± SD) [3, 10]: 5.10 ± 1.52 | Mean pathological score, Joint inflammation (X ± SD) [3, 10]: 4.00 ± 1.25 | Mean pathological score, Synovial hyperplasia/pannus (X ± SD) [3, 10]: 6.90 ± 0.99 | Effect on mean pathological scores of joint inflammation, joint cartilage erosion and synovial hyperplasia/pannus (in words) ([3]; 3 mg/kg): significantly reduce | Mean pathological score, Joint cartilage erosion (X ± SD) [3, 11]: 2.20 ± 1.93 | Mean pathological score, Joint inflammation (X ± SD) [3, 11]: 2.60 ± 1.90 | Mean pathological score, Synovial hyperplasia/pannus (X ± SD) [3, 11]: 4.80 ± 1.40 | Effect on mean pathological scores of joint inflammation, joint cartilage erosion and synovial hyperplasia/pannus (in words) ([3]; 10 mg/kg): significantly reduce | Mean pathological score, Joint cartilage erosion (X ± SD) [3, 12]: 0.10 ± 0.32 | Mean pathological score, Joint inflammation (X ± SD) [3, 12]: 0.30 ± 0.67 | Mean pathological score, Synovial hyperplasia/pannus (X ± SD) [3, 12]: 2.20 ± 0.42 | IC50 at 40 h [4]: 33.6 µM | inhibition at 2 h, 30 µM (hERG potassium channel; human, probe tracer with high hERG affinity, at 30 μM, read-out: hERG inhibition rate): < 50% | IC50 (hERG potassium channel; test concentration 3, 10 and 30 μM, 25° C., 2 h): > 30 µM | IC50 at 40 h [6]: > 50 µM | IC50 at 40 h [7]: 23.1 µM
